Measurements published in patent publication US20110150914A1, “COMPOSITIONS AND METHODS FOR DENGUE VIRUS (DV) TREATMENT AND VACCINATION” (priority 2008, published 2011).
Ends that are not written are not given here.

Assays:
[1] = target: T1, purified H-2 K^b molecules (Mus musculus, UniProt P01901); assay: MHC peptide-binding assay, purified H-2 K^b; details: purified MHC, radiolabeled peptide competition; read-out: Binding affinity (IC50 nM) H2-K^b
T1 construct: made in house
Description: MHC purification and quantitative assays to measure the binding affinity of peptides to purified H-2 K^b and H-2 D^b molecules were performed as previously described (Sidney et al., Curr Protoc Immunol 18:1813 2001); Vitiello et al., J Immunol 157:5555 (1996)). Briefly, 0.1-1 nM of radiolabeled peptide was co-incubated at room temperature with 1 μM to 1 nM of purified MHC in the presence of 1-3 μM human β2-microglobulin (Scripps Laboratories) and a mixture of protease inhibitors. After a 2 day incubation, binding of the radiolabeled peptide to the corresponding MHC class I molecule was determined by capturing MHC/peptide complexes on Lumitrac 600 microplates (Greiner Bio-One) coated with either the Y3 (anti-H-2 K^b) or 28-14-8S (anti-H-2 D^b, L^d and D^q) Ab, followed by measurement of bound counts per minute (cpm) using the TopCount microscintillation counter (Packard).
To confirm the MHC class I restriction of the 12 identified epitopes, measurements were performed of their MHC binding capacity using purified K^b and D^b molecules in an in vitro binding assay. Seven of the 12 epitopes bound the predicted allele with either high or intermediate affinity, as indicated by an IC50 of <50 nM or <500 nM, respectively. The five remaining epitopes also bound with biologically relevant affinities in the 500-2000 nM range.

CD8^+ T cells [2] = assay: Intracellular cytokine staining (IFN-γ), splenocytes of S221-infected wild-type mice; type: cell-based, C57BL/6 mice
Description: (§1) All Ab were purchased from eBioscience with the exception of anti-CD8α-PerCP and anti-CD107a-FITC which were obtained from BD Biosciences. RBC in blood were lysed using RBC lysis buffer (eBioscience). For surface staining, splenocytes or blood cells were washed, incubated with supernatant from 2.4G2-producing hybridoma cells to block Fc receptors, and labeled with anti-CD8α-PerCP, anti-CD44-APC, and anti-CD62L-PE. For intracellular cytokine staining, 10^6 splenocytes or 10^5 blood cells were plated in 96-well U-bottom plates and stimulated with individual DENV peptides (0.1 μg/ml) in the presence of brefeldin A (GolgiPlug, BD Biosciences) for 5 h. For CD107a staining, CD107a-FITC (or rat IgG2a-FITC) was added to the wells at the same time as the peptide. Cells were washed, incubated with 2.4G2 supernatant, labeled with anti-CD8α-PerCP, fixed and permeabilized using the BD Cytofix/Cytoperm Kit, and stained with anti-IFN-γ-APC and anti-TNF-α-PE. Samples were read on a FACS Caliber (BD Biosciences) and analyzed using FloJo software (Tree Star, Inc.)
To confirm that the IFN-γ response to the MHC class I-binding DENV peptides was mediated by CD8^+ T cells, intracellular cytokine staining (ICS) on CD8^+ T cells isolated from S221-infected wild-type mice was performed. Splenocytes were harvested from C57BL/6 mice 7 days after infection with 10^11 genomic equivlalents (GE) S221 and were re-stimulated in vitro with individual DENV2 peptides or an irrelevant peptide (irr) at 0.1 μg/ml in the presence of brefeldin A for 5 h. Cells were then stained for surface CD8 and intracellular IFN-γ and analyzed by flow cytometry. […] The percent of CD8^+ T cells producing IFN-γ is indicated. Referring to FIG. 2B, the figure is a summary of the DENV2-specific CD8^+ IFN-γ^+ response. The response to the irrelevant control peptide was subtracted from the responses to each DENV2 peptide. Each symbol represents one mouse and the bar represents the geometric mean. The identification of the 12 positive peptides for S221 was confirmed by the intracellular cytokine staining (ICS) (FIG. 2A), and the response to the 8 most dominant peptides was determined (FIG. 2B). The responses ranged from 0.14% recognizing NS2A 36 to 9.8% of CD8^+ T cells recognizing NS4B 99.
Splenocytes were harvested from naïve C57BL/6 mice or mice 7 days after infection with 10^11 GE of S221. The percent of CD8^+ T cells expressing CD44 and CD62L was determined in four independent studies (FIG. 3A). On day 7 after infection, splenocytes were stimulated with the eight major DENV2 peptides (individually; at 0.1 μg/ml) in the presence of brefeldin A, and stained for surface CD8 and intracellular IFN-γ. The percent of CD8^+ T cells producing IFN-γ in response to the irrelevant control peptide was subtracted from the response to each DENV2 peptide to determine the net response. The net responses to the eight major DENV2 peptides were added to determine the percent of DENV2-specific CD44^hi, CD62^lo, and CD44^hiCD62L^lo CD8^+ T cells (FIG. 3B). The data are expressed as the mean percent±SEM of 11-14 mice tested in at least four independent experiments.

CD8^+ T cells [3] = assay: IFN-γ ELISPOT with CD8^+ T cells of DENV2-infected C57BL/6 mice; type: cell-based; details: PL046 or S221 infected C57BL/6 mice
[4] = system: DENV peptide-pulsed target cells; assay: In vivo cytotoxicity assay; details: IFN-α/βR^−/− mice infected 7 days previously with 10^10 GE S221; 4 h after i.v. transfer; targets pulsed 0.5 μg/ml
CD8^+ T cells [5] = assay: TNF-α and CD107a staining after peptide re-stimulation; type: cell-based, wild-type or IFN-α/βR^−/− mice; details: splenocytes day 7 after S221 infection
Description: as §1
Because polyfunctional CD8^+ T cell responses are associated with protection (Harari et al., Immunol Rev 211:236 (2006)), the phenotype of the DENV-specific CD8^+ T cells in wild-type and IFN-α/βR^−/− mice was studied in more detail by measuring CD107a expression (CD107a, or LAMP-1, is expressed on the cell surface upon degranulation) and TNF-α production for two of the DENV-specific CD8^+ T cell populations, as described above. To collect the data, splenocytes harvested from wild-type or IFN-α/βR^−/− mice 7 days after infection with 10^11 or 10^10 GE of S221, respectively, were re-stimulated in vitro with C51-59, NS4B99-107, or an irrelevant peptide. An anti-CD107a Ab was added for the duration of the stimulation. Cells were then stained for surface CD8, intracellular IFN-γ and TNF-α, and analyzed by flow cytometry.

T1 sequence (P61769 21-119): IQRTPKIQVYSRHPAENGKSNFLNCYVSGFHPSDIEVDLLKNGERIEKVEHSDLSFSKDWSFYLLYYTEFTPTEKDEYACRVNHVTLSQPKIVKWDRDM
T1 sequence (P01901 22-369): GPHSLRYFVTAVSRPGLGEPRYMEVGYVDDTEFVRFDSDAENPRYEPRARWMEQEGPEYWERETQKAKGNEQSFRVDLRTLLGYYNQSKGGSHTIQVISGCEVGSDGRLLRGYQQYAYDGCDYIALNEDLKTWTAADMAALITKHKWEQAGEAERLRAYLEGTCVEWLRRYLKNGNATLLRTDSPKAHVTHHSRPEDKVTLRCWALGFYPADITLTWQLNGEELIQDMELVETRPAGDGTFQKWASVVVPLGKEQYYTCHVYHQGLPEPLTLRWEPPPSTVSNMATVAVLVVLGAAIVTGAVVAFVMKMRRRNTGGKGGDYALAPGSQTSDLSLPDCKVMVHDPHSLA

Sequence: YSQVNPITL [NS4B99-107]
- IC50 [1]: 1890 nM
- percent of CD8^+ T cells producing IFN-γ / recognizing the peptide (CD8^+ T cells [2]; wild-type C57BL/6, day 7 after 10^11 GE S221, peptide 0.1 μg/ml, 5 h): 9.8%
- share of the DENV2-specific response (CD8^+ T cells [2]; wild-type C57BL/6 mice): 30%
- % of splenic CD8^+ T cells (corresponding to average number) (CD8^+ T cells [2]; wild-type mice, day 7 after 10^11 GE S221): 5.9%
- number of CD8^+ T cells producing IFN-γ (average) (CD8^+ T cells [2]; wild-type mice, spleen, day 7 after 10^11 GE S221): 6.3×10^5 CD8^+ T cells
- IFN-γ ELISPOT response (net SFC per 10^6 CD8^+ T cells), in words (CD8^+ T cells [3]): highest responses
- percentage killing of peptide-pulsed target cells [4]: 85%
- CD107a surface expression (degranulation) (CD8^+ T cells [5]): expressed CD107a on the surface
- TNF-α production by peptide-specific CD8^+ T cells (CD8^+ T cells [5]): produced TNF-α
